Assay results: patent publication US7459478B2, “Substituted dihydropyrano indole-3,4-dione derivatives as inhibitors of plasminogen activator inhibitor-1 (PAI-1)” (Wyeth, priority 2002, dated 2008)
Read-outs that look alike come from different tables or passages of the source.

Columns and labels:
[1] = molecular target: T1, recombinant human plasminogen activator inhibitor-1 (Homo sapiens, UniProt P05121); assay: Primary screen for the PAI-1 inhibition (chromogenic residual tPA activity); assay type: biochemical
T1 construct: purchased Molecular Innovations, Royal Oak, Mich
Procedure: Primary Screen for the PAI-1 Inhibition
Test compounds were dissolved in DMSO at a final concentration of 10 mM, then diluted 100× in physiologic buffer. The inhibitory assay was initiated by the addition of the test compound (1-100 μM final concentration, maximum DMSO concentration of 0.2%) in a pH 6.6 buffer containing 140 nM recombinant human plasminogen activator inhibitor-1 (Molecular Innovations, Royal Oak, Mich.). Following a 1 hour incubation at room temperature, 70 nM of recombinant human tissue plasminogen activator (tPA) was added, and the combination of the test compound, PAI-1 and tPA was incubated for an additional 30 minutes. Following the second incubation, Spectrozyme-tPA (American Diagnostica, Greenwich, Conn.), a chromogenic substrate for tPA, was added and absorbance read at 405 nm at 0 and 60 minutes. Relative PAI-1 inhibition was equal to the residual tPA activity in the presence of the test compound and PAI-1. Control treatments included the complete inhibition of tPA by PAI-1 at the molar ratio employed (2:1), and the absence of any effect of the test compound on tPA alone.

[2] = molecular target: human PAI-1 (Homo sapiens, UniProt P05121); assay: Assay for determining IC50 of inhibition of PAI-1 (tPA-coated plate, antibody detection of active PAI-1); settings: human PAI-1 50 ng/ml, pH 7.5, binding to tPA-coated plate
Procedure: Assay for Determining IC50 of Inhibition of PAI-1
This assay is based upon the non-SDS dissociable interaction between tPA and active PAI-1. Assay plates were initially coated with human tPA (10 μg/ml). Test compounds were dissolved in DMSO at 10 mM, then diluted with physiologic buffer (pH 7.5) to a final concentration of 1-50 μM. Test compounds were incubated with human PAI-1 (50 ng/ml) for 15 minutes at room temperature. The tPA-coated plate was washed with a solution of 0.05% Tween 20 and 0.1% BSA, then the plate was blocked with a solution of 3% BSA. An aliquot of the test compound/PAI-1 solution was then added to the tPA-coated plate, incubated at room temperature for 1 hour, and washed. Active PAI-1 bound to the plate was assessed by adding an aliquot of a 1:1000 dilution of the 33B8 monoclonal antibody against human PAI-1, and incubating the plate at room temperature for 1 hour (Molecular Innovations, Royal Oak, Mich.). The plate was again washed, and a solution of goat anti-mouse IgG-alkaline phosphatase conjugate is added at a 1:50,000 dilution in goat serum. The plate was incubated 30 minutes at room temperature, washed, and a solution of alkaline phosphatase substrate is added. The plate was incubated 45 minutes at room temperature, and color development is determined at OD405 nm. The quantition of active PAI-1 bound to tPA at varying concentrations of the test compound was used to determine the IC50. Results were analyzed using a logarithmic best-fit equation. The assay sensitivity was 5 ng/ml of human PAI-1 as determined from a standard curve ranging from 0-100 ng/ml.

[3] = 25 uM test compound, 140 nM PAI-1, 70 nM tPA, pH 6.6, read-out: % inhibition at 25 uM
[4] = pH 6.6, read-out: % inhibition at 25 uM

T1 sequence (P05121 24-402): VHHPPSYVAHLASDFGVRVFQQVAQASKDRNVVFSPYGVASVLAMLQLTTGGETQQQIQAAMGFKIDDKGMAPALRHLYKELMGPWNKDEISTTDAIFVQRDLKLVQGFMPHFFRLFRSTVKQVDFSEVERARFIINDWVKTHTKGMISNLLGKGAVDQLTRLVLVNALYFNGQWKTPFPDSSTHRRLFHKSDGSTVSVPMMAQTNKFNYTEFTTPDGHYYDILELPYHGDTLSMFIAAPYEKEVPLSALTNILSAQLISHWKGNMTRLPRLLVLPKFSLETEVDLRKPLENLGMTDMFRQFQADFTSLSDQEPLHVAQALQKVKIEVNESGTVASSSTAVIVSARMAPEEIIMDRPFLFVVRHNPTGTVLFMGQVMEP
Chain of human PAI-1 (P05121 24-402): as above

SMILES | inhibition at 25 µM [1, 3] | melting point | inhibition at 25 µM [1, 4] | IC50 [2]
O=C1OCc2c(c3cc(-c4ccc(OC(F)(F)F)cc4)ccc3n2Cc2ccccc2)C1=O [Example 2, 9-Benzyl-6-[4-(trifluoromethoxy)phenyl]-1,9-dihydropyrano[3,4-b]indole-3,4-dione] | 34% | 239 to 240 °C |  | 
Cc1ccc(Cn2c3c(c4cc(-c5cccc(C)c5)ccc42)C(=O)C(=O)OC3)cc1 [Example 3, 9-(4-Methylbenzyl)-6-(3-methylphenyl)-1,9-dihydropyrano[3,4-b]indole-3,4-dione] |  | 216 to 217 °C | 22% | 
Cc1ccc(Cn2c3c(c4cc(OCc5ccccc5)ccc42)C(=O)C(=O)OC3)cc1 [Example 5, 6-(Benzyloxy)-9-(4-methylbenzyl)-1,9-dihydropyrano[3,4-b]indole-3,4-dione] |  | 206 to 207 °C |  | 26.6 µM
O=C([O-])C(=O)c1c(CO)n(Cc2ccccc2)c2ccc(-c3ccc(Cl)cc3)cc12.[K+] [Example 10, [1-Benzyl-5-(4-chlorophenyl)-2-(hydroxymethyl)-1H-indol-3-yl](oxo)acetic acid, potassium salt] |  | 225 to 226 °C | 59% | 
O=C([O-])C(=O)c1c(CO)n(Cc2ccccc2)c2ccc(-c3ccc(-c4ccccc4)cc3)cc12.[K+] [Example 13, [1-Benzyl-5-(1,1′-biphenyl-4-yl)-2-(hydroxymethyl)-1H-indol-3-yl](oxo)acetic acid, potassium salt] |  | 266 to 268 °C | 36% | 
Cc1ccc(Cn2c3c(c4cc(-c5ccc(OC(F)(F)F)cc5)ccc42)C(=O)C(=O)OC3)cc1 [Example 1, 9-(4-Methylbenzyl)-6-[4-(trifluoromethoxy)phenyl]-1,9-dihydropyrano[3,4-b]indole-3,4-dione] |  | 243 to 244 °C |  | 2.3 µM
O=C1OCc2c(c3cc(-c4ccc(Cl)cc4)ccc3n2Cc2ccccc2)C1=O [Example 9, 9-Benzyl-6-(4-chlorophenyl)-1,9-dihydropyrano[3,4-b]indole-3,4-dione] |  | 263 to 264 °C | 40% | 
Cc1cccc(-c2ccc3c(c2)c2c(n3Cc3ccccc3)COC(=O)C2=O)c1 [Example 11, 9-Benzyl-6-(3-methylphenyl)-1,9-dihydropyrano[3,4-b]indole-3,4-dione] |  | 225 to 226 °C | 30% | 
O=C1OCc2[nH]c3ccc(OCc4ccccc4)cc3c2C1=O [Example 6, 6-(Benzyloxy)-1,9-dihydropyrano[3,4-b]indole-3,4-dione] |  | > 291 °C (dec.) |  | 34.8 µM
CC(C)(C)c1ccc(Cn2c3c(c4cc(O)ccc42)C(=O)C(=O)OC3)cc1 [Example 8, 9-(4-tert-Butylbenzyl)-6-hydroxy-1,9-dihydropyrano[3,4-b]indole-3,4-dione] |  | > 105 °C (dec.) |  | 4.83 µM
O=C1OCc2c(c3cc(-c4ccc(-c5ccccc5)cc4)ccc3n2Cc2ccccc2)C1=O [Example 12, 9-Benzyl-6-(1,1′-biphenyl-4-yl)-1,9-dihydropyrano[3,4-b]indole-3,4-dione] | 40% | 254 to 255 °C |  | 
Cc1cccc(-c2ccc3c(c2)c2c(n3Cc3ccc(C(C)(C)C)cc3)COC(=O)C2=O)c1 [Example 4, 9-(4-tert-butylbenzyl)-6-(3-methylphenyl)-1,9-dihydropyrano[3,4-b]indole-3,4-dione] |  | 196 to 197 °C |  | 29.5 µM
CC(C)(C)c1ccc(Cn2c3c(c4cc(OCc5ccccc5)ccc42)C(=O)C(=O)OC3)cc1 [Example 7, 6-(Benzyloxy)-9-(4-tert-butylbenzyl)-1,9-dihydropyrano[3,4-b]indole-3,4-dione] | 6% | 233 to 234 °C |  | 
